US20240246942A1, “KINASE INHIBITORS FOR THE TREATMENT OF NEURODEGENERATIVE DISEASES” (priority 2020, published 2024)

Tests used:
Assay in all cases: biochemical
[1] = biological target: T1, panel of 374 wild-type kinases (Homo sapiens, UniProt O43318); settings: read-out: % Enzyme Activity (relative to DMSO controls), kinase TAK1
T1 construct: purchased Reaction Biology Corporation
T1 sequence (O43318 1-606): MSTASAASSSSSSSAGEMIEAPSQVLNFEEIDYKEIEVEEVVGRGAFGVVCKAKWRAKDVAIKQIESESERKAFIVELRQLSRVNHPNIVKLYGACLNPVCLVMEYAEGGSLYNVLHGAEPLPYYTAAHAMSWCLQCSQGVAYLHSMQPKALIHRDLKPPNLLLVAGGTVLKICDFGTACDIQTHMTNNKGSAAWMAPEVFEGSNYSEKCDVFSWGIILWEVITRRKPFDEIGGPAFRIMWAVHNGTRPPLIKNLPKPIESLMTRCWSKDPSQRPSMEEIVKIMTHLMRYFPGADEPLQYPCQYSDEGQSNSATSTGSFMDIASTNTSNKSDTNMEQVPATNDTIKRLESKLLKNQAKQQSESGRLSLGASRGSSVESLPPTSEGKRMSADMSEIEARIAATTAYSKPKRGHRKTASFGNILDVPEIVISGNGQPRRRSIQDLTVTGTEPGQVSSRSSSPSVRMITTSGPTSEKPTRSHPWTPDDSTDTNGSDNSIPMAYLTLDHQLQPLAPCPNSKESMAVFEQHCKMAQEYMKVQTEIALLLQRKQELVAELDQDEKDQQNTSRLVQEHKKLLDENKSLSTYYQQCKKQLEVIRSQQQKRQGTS

[2] = biological target: T2, panel of 374 wild-type kinases (Homo sapiens, UniProt P29320); settings: read-out: % Enzyme Activity (relative to DMSO controls), EPHA3
T2 construct: purchased Reaction Biology Corporation
T2 sequence (P29320 21-983): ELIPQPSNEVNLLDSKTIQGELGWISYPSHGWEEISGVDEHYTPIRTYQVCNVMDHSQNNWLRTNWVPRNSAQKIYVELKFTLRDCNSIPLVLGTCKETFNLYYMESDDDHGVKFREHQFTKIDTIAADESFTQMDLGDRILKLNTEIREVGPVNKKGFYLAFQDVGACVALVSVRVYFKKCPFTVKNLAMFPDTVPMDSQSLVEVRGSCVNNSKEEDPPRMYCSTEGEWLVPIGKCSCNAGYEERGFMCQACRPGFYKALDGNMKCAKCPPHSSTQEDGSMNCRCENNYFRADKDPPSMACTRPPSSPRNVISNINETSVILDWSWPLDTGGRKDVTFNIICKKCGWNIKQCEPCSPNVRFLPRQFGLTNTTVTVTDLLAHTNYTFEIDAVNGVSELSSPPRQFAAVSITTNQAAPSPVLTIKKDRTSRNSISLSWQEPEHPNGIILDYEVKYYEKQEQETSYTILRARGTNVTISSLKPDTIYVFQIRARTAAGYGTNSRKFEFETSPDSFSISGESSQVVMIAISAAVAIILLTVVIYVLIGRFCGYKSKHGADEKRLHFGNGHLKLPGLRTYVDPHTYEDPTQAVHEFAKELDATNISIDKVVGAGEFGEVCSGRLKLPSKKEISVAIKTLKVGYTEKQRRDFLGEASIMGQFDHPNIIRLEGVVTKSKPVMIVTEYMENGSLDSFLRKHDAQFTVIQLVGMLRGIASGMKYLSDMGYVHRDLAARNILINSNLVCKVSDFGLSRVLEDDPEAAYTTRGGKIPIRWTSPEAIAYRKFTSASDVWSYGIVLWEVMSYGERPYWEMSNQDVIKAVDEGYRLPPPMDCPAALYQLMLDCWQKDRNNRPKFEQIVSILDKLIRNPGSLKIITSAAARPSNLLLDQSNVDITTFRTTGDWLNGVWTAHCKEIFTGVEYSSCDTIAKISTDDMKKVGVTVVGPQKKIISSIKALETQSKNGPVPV

[3] = biological target: T3, panel of 374 wild-type kinases (Homo sapiens, UniProt Q13976); settings: read-out: % Enzyme Activity (relative to DMSO controls), kinase PKG1a
T3 construct: purchased Reaction Biology Corporation
T3 sequence (Q13976 1-671): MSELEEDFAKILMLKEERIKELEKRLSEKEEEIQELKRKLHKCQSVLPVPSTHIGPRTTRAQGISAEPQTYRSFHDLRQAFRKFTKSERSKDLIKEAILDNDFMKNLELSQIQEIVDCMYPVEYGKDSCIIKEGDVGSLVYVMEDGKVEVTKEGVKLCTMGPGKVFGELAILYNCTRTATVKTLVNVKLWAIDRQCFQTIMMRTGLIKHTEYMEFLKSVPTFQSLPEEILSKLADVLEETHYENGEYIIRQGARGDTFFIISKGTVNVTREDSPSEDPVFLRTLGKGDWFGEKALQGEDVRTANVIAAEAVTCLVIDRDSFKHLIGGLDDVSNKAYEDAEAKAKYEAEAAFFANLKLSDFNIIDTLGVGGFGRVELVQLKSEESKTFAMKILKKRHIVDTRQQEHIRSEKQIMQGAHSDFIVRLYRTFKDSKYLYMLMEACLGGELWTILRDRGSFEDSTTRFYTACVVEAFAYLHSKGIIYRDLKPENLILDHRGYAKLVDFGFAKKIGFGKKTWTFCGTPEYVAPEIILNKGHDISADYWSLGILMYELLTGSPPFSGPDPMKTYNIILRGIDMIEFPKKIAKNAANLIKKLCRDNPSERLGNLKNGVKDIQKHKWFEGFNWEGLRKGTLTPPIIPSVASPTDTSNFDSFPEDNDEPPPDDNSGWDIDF

[4] = biological target: T4, panel of 374 wild-type kinases (Homo sapiens, UniProt Q9Y6E0); settings: read-out: % Enzyme Activity (relative to DMSO controls), MST3/STK24
T4 construct: purchased Reaction Biology Corporation
T4 sequence (Q9Y6E0 whole entry): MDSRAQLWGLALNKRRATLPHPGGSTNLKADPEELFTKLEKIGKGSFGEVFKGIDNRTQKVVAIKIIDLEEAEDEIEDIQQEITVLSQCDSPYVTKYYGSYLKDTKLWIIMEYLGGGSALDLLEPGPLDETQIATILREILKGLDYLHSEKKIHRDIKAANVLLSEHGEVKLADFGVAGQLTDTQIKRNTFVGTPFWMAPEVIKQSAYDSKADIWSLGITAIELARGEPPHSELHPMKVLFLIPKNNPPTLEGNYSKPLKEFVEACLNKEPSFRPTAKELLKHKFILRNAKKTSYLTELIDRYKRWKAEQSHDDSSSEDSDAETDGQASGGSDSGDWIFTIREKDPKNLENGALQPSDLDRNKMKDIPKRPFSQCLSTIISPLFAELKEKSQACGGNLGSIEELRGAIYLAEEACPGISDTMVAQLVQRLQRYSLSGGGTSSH

Compound	remaining activity at 5 µM [1]	remaining activity at 5 µM [2]	remaining activity at 5 µM [3]	remaining activity at 5 µM [4]	remaining activity at 10 µM ([1]; 10 uM)	remaining activity at 10 µM ([2]; 10 uM)	remaining activity at 10 µM ([3]; 10 uM)	remaining activity at 10 µM ([4]; 10 uM)
O=C(Nc1cnn(-c2csc(C(=O)NC3COC3)c2)c1)Nc1ccccc1Cl [Compound 17, 4-(4-(3-(2-chlorophenyl)ureido)-1H-pyrazol-1-yl)-N-(oxetan-3-yl)thiophene-2-carboxamide]	98%	104%	110%	113%				
Cc1sc(C(=O)NC2COC2)cc1-n1cc(NC(=O)Nc2c(F)cccc2Cl)cn1 [Compound 27, 4-(4-(3-(2-chloro-6-fluorophenyl)ureido)-1H-pyrazol-1-yl)-5-methyl-N-(oxetan-3-yl)thiophene-2-carboxamide]					98.4%	109%	120%	67.3%
O=C(Nc1cnn(-c2csc(C(=O)NC3COC3)c2)c1)Nc1c(F)cccc1Cl [Compound 25, 4-(4-(3-(2-chloro-6-fluorophenyl)ureido)-1H-pyrazol-1-yl)-N-(oxetan-3-yl)thiophene-2-carboxamide]	109%	96.1%	93.2%	81.6%				
